From paper PMC5562305, “Impact of novel palmitoylated prolactin-releasing peptide analogs on metabolic changes in mice with diet-induced obesity” (PLoS ONE, 2017)
Starred links: 1 amine or outer side, 2 acyl side, 3 side chain; linkers in the order of their positions; H or OH if unused. Residues, ends and D or L forms follow the SMILES beside them. Groups on a side chain read outwards from the residue. *: point of attachment. γGlu = O=C(O)[C@H](CCC(=O)[*:2])N[*:1]; Palmitoyl = CCCCCCCCCCCCCCCC(=O)*

Tested on: urinary metabolites
Assay: NMR-based metabolomics of urine of DIO mice
Assay type: in vivo, C57BL/6 mice
Design: key to DMA, Mean / DMG, Mean / MA, Mean / TMA, Mean / acetate, Mean / allantoin, Mean / carnitine, Mean / choline, Mean / cis-aconitate, Mean / creatine+creatinine, Mean / creatine, Mean / creatinine, Mean / ethanolamine, Mean / formate, Mean / galactose, Mean / glucose, Mean / glycine, Mean / lactate, Mean / succinate, Mean / vinylacetylglycine, Mean: TSA-normalized intensity of the metabolite's representative NMR signal
Settings: urine NMR signal, DIO mice
Description: Urine samples for NMR-based metabolomics were collected prior to the start of the interventions and at the end of the experiment. For overnight urine collection (from 5 pm to 8 am), the mice were housed in individual metabolic cages (Tecniplast, Buguggiate, Italy) without access to food. Samples were collected with the addition of NaN3 and stored at -80°C until NMR analysis.
The urine samples were thawed at room temperature and centrifuged at 13 684 x g for 5 min prior to the NMR experiments. A 200-μl aliquot of supernatant was diluted with 340 μl of H2O mixed with 60 μl of phosphate buffer (1.5 M KH2PO4 in D2O containing 2 mM NaN3 and 0.1% trimethylsilyl propionic acid (TSP), pH 7.4) and transferred to a 5-mm NMR tube. The NMR data were acquired with a 600 MHz Bruker Avance III spectrometer (Bruker BioSpin, Rheinstetten, Germany) equipped with a 5-mm TCI cryogenic probe head. All of the experiments were performed at 300 K. Automatic tuning, matching, shimming and adjusting of the 90° pulse length were performed for each sample.
As mouse urine naturally contains urinary proteins, the NMR spectra were acquired using a Carr-Purcell-Meiboom-Gill (CPMG) pulse sequence with water presaturation (Bruker pulse sequence cpmgpr1d) to eliminate the strong protein background. […] For better metabolite identification, a short J-resolved experiment with presaturation (NS = 2, SW = 16 ppm, TD = 8k, number of increments = 40, SW = 78.125 Hz in the indirect dimension, and relaxation delay = 2 s) was executed for all samples. Additional two-dimensional ^1H-^1H correlation spectroscopy (COSY) and ^1H-^13C heteronuclear multiple-quantum correlation (HMQC) experiments (Bruker pulse sequences cosygpprqf and hmqcphpr) were performed for selected samples.
The acquired data were processed using Topspin 3.2 software (Bruker BioSpin, Rheinstetten, Germany). Line broadening of 0.3 Hz was applied on free induction decays (FIDs) prior to Fourier transformation. The spectra were automatically phased, baseline corrected and referenced to the signal of TSP (0.00 ppm).
The assignment of individual metabolites was achieved by comparing the proton spectra with the spectra of pure metabolites using Chenomx NMR Suite 7.6 (Chenomx Inc., Edmonton, AB, Canada), the HMDB database and previously published metabolomic data. The identification of metabolites was supported through J-resolved and COSY experiments and, if possible, confirmed using carbon chemical shifts extracted from the HMQC spectra.
For quantitation of individual metabolites, the CPMG spectra were uniformly binned in the range of 0.10–10.00 ppm to 0.01-ppm intervals using AMIX software (Bruker BioSpin, Rheinstetten, Germany). This procedure reduced the dimensionality of the data, eliminated chemical shift variations and thus simplified the reproducible automatic quantification. Regions corresponding to water (4.60–4.90 ppm) and urea (5.60–6.00 ppm) were removed prior to analysis. As the dilutions of the original urine samples differed (due to the differences in water intake during urine collection), all of the spectra were normalized to the total spectral area (TSA). For each identified metabolite, one representative signal was chosen and then quantified as the sum of appropriate adjacent 0.01-ppm bins to cover the whole signal width. The metabolite concentration was expressed as the TSA-normalized intensity of the respective signal. For selection of an appropriate statistical method (parametric or non-parametric) the Lilliefors test of normality was performed. […] Metabolite alterations with a P < 0.05 were considered statistically significant. Statistical analysis was performed using Matlab software (“MATLAB version 8.6 (R2015b). Natick, Massachusetts: The MathWorks Inc., 2015.,” n.d.). […]

CCCCCCCCCCCCCCCC(=O)N[C@@H](CCC(=O)NCCCC[C@H](NC(=O)[C@@H](NC(=O)[C@H](CCC(=O)O)NC(=O)[C@H](CCSC)NC(=O)[C@H](CO)NC(=O)[C@H](Cc1c[nH]cn1)NC(=O)[C@H](CCCNC(=N)N)NC(=O)[C@H](Cc1c[nH]cn1)NC(=O)[C@@H](NC(=O)[C@H](CCCNC(=N)N)NC(=O)[C@@H](N)CO)[C@@H](C)O)[C@@H](C)CC)C(=O)N[C@H](C(=O)N1CCC[C@H]1C(=O)N[C@@H](CC(=O)O)C(=O)N[C@H](C(=O)N[C@@H](CC(N)=O)C(=O)N1CCC[C@H]1C(=O)N[C@@H](C)C(=O)N[C@@H](Cc1c[nH]c2ccccc12)C(=O)N[C@@H](Cc1ccc(O)cc1)C(=O)N[C@@H](C)C(=O)N[C@@H](CO)C(=O)N[C@@H](CCCNC(=N)N)C(=O)NCC(=O)N[C@H](C(=O)N[C@@H](CCCNC(=N)N)C(=O)N1CCC[C@H]1C(=O)N[C@H](C(=O)NCC(=O)N[C@@H](CCCNC(=N)N)C(=O)N[C@@H](Cc1ccccc1)C(N)=O)C(C)C)[C@@H](C)CC)[C@@H](C)CC)[C@@H](C)O)C(=O)O [analog 1] (H-SRTHRHSMEIK([γGlu-Palmitoyl])TPDINPAWYASRGIRPVGRF-NH2; N-terminus assumed)
2-OG (2.45 ppm), Saline/analog1 % (change of group mean vs saline): 0.026% | 2-OG (3.01 ppm), Saline/analog1 % (change of group mean vs saline): -0.000867% | 2-PY (8.33 ppm), Saline/analog1 % (change of group mean vs saline): -0.107% | 3-indoxylsulfate (7.51 ppm), Saline/analog1 % (change of group mean vs saline): 0.024% | 3-indoxylsulfate (7.71 ppm), Saline/analog1 % (change of group mean vs saline): 0.023% | 4-PY (7.97 ppm), Saline/analog1 % (change of group mean vs saline): -0.088% | 4-PY (8.55 ppm), Saline/analog1 % (change of group mean vs saline): -0.153% | DMA, Saline/analog1 % (change of group mean vs saline): 0.019% | MNA-Nox (8.75 ppm), Saline/analog1 % (change of group mean vs saline): -0.117% | N-carbamoylalanine (2.38 ppm), Saline/analog1 % (change of group mean vs saline): 0.020% | N-carbamoylalanine (3.31 ppm), Saline/analog1 % (change of group mean vs saline): -0.071% | N-isovalerylglycine + oxovalerate (0.92 ppm), Saline/analog1 % (change of group mean vs saline): 0.093% | TMA, Saline/analog1 % (change of group mean vs saline): -0.084% | acetate, Saline/analog1 % (change of group mean vs saline): 0.161% | allantoin, Saline/analog1 % (change of group mean vs saline): 0.042% | carnitine, Saline/analog1 % (change of group mean vs saline): 0.063% | choline, Saline/analog1 % (change of group mean vs saline): 0.027% | cis-aconitate, Saline/analog1 % (change of group mean vs saline): -0.010% | citrate (2.55 ppm), Saline/analog1 % (change of group mean vs saline): -0.078% | citrate (2.69 ppm), Saline/analog1 % (change of group mean vs saline): -0.081% | creatine+creatinine, Saline/analog1 % (change of group mean vs saline): 0.078% | creatine, Saline/analog1 % (change of group mean vs saline): -0.018% | creatinine, Saline/analog1 % (change of group mean vs saline): 0.087% | ethanolamine, Saline/analog1 % (change of group mean vs saline): -0.040% | formate, Saline/analog1 % (change of group mean vs saline): 0.026% | fumarate, Saline/analog1 % (change of group mean vs saline): -0.176% | galactose, Saline/analog1 % (change of group mean vs saline): -0.073% | glucose, Saline/analog1 % (change of group mean vs saline): -0.101% | glycine, Saline/analog1 % (change of group mean vs saline): -0.064% | hexanoylglycine + acids (0.88 ppm), Saline/analog1 % (change of group mean vs saline): 0.195% | hippurate (7.55 ppm), Saline/analog1 % (change of group mean vs saline): -0.067% | hippurate (7.64 ppm), Saline/analog1 % (change of group mean vs saline): -0.069% | hippurate (7.84 ppm), Saline/analog1 % (change of group mean vs saline): -0.067% | lactate, Saline/analog1 % (change of group mean vs saline): 0.188% | multiplet acids (1.6 ppm), Saline/analog1 % (change of group mean vs saline): 0.198% | putrescin, Saline/analog1 % (change of group mean vs saline): 0.025% | succinate, Saline/analog1 % (change of group mean vs saline): 0.118% | taurine (3.27 ppm), Saline/analog1 % (change of group mean vs saline): -0.289% | taurine (3.43 ppm), Saline/analog1 % (change of group mean vs saline): -0.352% | trigonelline (8.84 ppm), Saline/analog1 % (change of group mean vs saline): -0.128% | trigonelline (9.13 ppm), Saline/analog1 % (change of group mean vs saline): -0.163% | vinylacetylglycine, Saline/analog1 % (change of group mean vs saline): 0.197% | 2-OG (2.45 ppm), Mean (group mean): 12.062 | 2-OG (3.01 ppm), Mean (group mean): 10.231 | 2-PY (8.33 ppm), Mean (group mean): 1.038 | 3-indoxylsulfate (7.51 ppm), Mean (group mean): 1.334 | 3-indoxylsulfate (7.71 ppm), Mean (group mean): 0.788 | 4-PY (7.97 ppm), Mean (group mean): 1.650 | 4-PY (8.55 ppm), Mean (group mean): 0.491 | DMA, Mean (group mean): 5.115 | DMG, Mean (group mean): 1.908 | MA, Mean (group mean): 2.952 | MNA (8.90 ppm), Mean (group mean): 0.369 | MNA (8.97 ppm), Mean (group mean): 0.353 | MNA (9.265 ppm), Mean (group mean): 0.370 | MNA-Nox (7.75 ppm), Mean (group mean): 0.962 | MNA-Nox (8.13 ppm), Mean (group mean): 0.690 | MNA-Nox (8.49 ppm), Mean (group mean): 0.452 | MNA-Nox (8.75 ppm), Mean (group mean): 0.431 | N-carbamoylalanine (2.38 ppm), Mean (group mean): 10.982 | N-carbamoylalanine (3.31 ppm), Mean (group mean): 8.810 | N-isovalerylglycine + oxovalerate (0.92 ppm), Mean (group mean): 15.843 | TMA, Mean (group mean): 11.127 | acetate, Mean (group mean): 4.363 | allantoin, Mean (group mean): 21.031 | carnitine, Mean (group mean): 6.328 | choline, Mean (group mean): 2.023 | cis-aconitate, Mean (group mean): 8.788 | citrate (2.55 ppm), Mean (group mean): 30.039 | citrate (2.69 ppm), Mean (group mean): 27.401 | creatine+creatinine, Mean (group mean): 24.594 | creatine, Mean (group mean): 6.851 | creatinine, Mean (group mean): 12.065 | ethanolamine, Mean (group mean): 7.631 | formate, Mean (group mean): 0.204 | fumarate, Mean (group mean): 0.145 | galactose, Mean (group mean): 0.718 | glucose, Mean (group mean): 3.260 | glycine, Mean (group mean): 5.697 | hexanoylglycine + acids (0.88 ppm), Mean (group mean): 15.760 | hippurate (7.55 ppm), Mean (group mean): 4.327 | hippurate (7.64 ppm), Mean (group mean): 2.207 | hippurate (7.84 ppm), Mean (group mean): 4.594 | lactate, Mean (group mean): 7.323 | multiplet acids (1.6 ppm), Mean (group mean): 12.799 | putrescin, Mean (group mean): 9.134 | succinate, Mean (group mean): 12.041 | taurine (3.27 ppm), Mean (group mean): 18.310 | taurine (3.43 ppm), Mean (group mean): 14.649 | trigonelline (8.84 ppm), Mean (group mean): 0.272 | trigonelline (9.13 ppm), Mean (group mean): 0.107 | vinylacetylglycine, Mean (group mean): 3.595
